Columns and labels:
MAS [1] = biological target: T1, MAS (Homo sapiens, UniProt P04201); assay: FLIPR calcium assay, induced myc-tagged WT MAS HEK293 stable cell line; format: cell-based; settings: WT MAS
T1 construct: expressed in transfected cells
T1 sequence (P04201 1-325): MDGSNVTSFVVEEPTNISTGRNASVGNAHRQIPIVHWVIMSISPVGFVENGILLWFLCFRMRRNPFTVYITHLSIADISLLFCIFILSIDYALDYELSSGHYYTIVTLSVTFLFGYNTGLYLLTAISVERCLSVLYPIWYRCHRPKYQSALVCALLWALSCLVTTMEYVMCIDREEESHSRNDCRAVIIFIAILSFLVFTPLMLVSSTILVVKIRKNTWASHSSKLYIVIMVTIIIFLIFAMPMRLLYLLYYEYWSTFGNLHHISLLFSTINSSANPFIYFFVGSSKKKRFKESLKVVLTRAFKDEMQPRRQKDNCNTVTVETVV
Protocol: The assay was performed using FLIPR Calcium 5 assay kit (Molecular Devices, Sunnyvale, CA). For calcium measurements, cells at a density of 125,000 cells/well in 100 µl medium were seeded onto a 96-well clear bottom black cell culture plate that was pre-coated with poly-L-lysine. In the calcium assays the cell density of 125,000 cells/well was consistently maintained to minimize variability between independent experiments. The cells were seeded in induction media to induce MAS expression or in complete media for negative controls. The plate was maintained in a cell culture incubator for 26–28 h. The cells were then serum starved for 2 h by replacing the medium with 100 µl of serum free DMEM. In the case of pre-treatment with pan-inhibitor of G protein signaling, BIM-46187, the cells were initially serum starved for 1 h by replacing the medium with 50 µl of serum free DMEM. After 1 h, 50 µl of BIM-46187 was added to the cells to a final concentration of 25 µM and treated for another 1 h. Following serum starvation, 100 µl of calcium sensitive dye along with 2x (2.5 mM final concentration) probenecid (Life Technologies, Grand Island, NY) was added to the cells. During this step, AR-inverse agonist or BIM-46187 was also added at desired concentrations to the calcium dye preparation in case of experiments where cells were pre-treated with these inhibitors. The cells were maintained for one hour in the cell culture incubator. Following this, the 96-well plate containing cells loaded with calcium dye and a U-bottom 96-well plate containing ligands at 5x the desired final concentration in D-PBS (1.47 mM KH2PO4, 138 mM NaCl, 2.67 mM KCl, 8.1 mM Na2HPO4, pH 7.3) were allowed to equilibrate for 15 min on a FlexStation 3 instrument (Molecular Devices, Sunnyvale, CA) at 37°C. The plates were further equilibrated on the instrument for 5 min with the lids removed from the plates. The instrument was programmed in FLEX mode to add ligands (50 µl at 5x concentration) to the cells and to monitor the fluorescence before and after adding the ligands. In re-stimulation and antagonism assays the instrument is programmed to add 35 µl of first ligand followed by addition of the second ligand (35 µl) after 10 min. […] Therefore, when using 5x ligand stock the maximum AR-agonist concentration that could be tested was 10 µM.
In the calcium assays, the maximum response and minimum response values in relative fluorescence units (RFU) were extracted by subtracting the corresponding baseline value wherein baseline is defined as the average fluorescence of all time points before addition of ligand.
The kinetic parameter t1/2 (time taken to reach half of the maximum response) was determined using SoftMax Pro software supplied with the FlexStation 3 instrument (Molecular Devices, Sunnyvale, CA).
For re-stimulation assays, the data is expressed as the percentage of maximum agonist stimulation to allow for ready comparison between individual experiments. […] For all the assays, the EC50 and IC50 values were estimated by fitting the data to a three parameter dose response using GraphPad Prism software (GraphPad, La Jolla, CA).

MAS [2] = biological target: T1, MAS; set-up: method as in ref [3] (a number printed in a supplementary file, which may have a reference list of its own: not looked up in the article's list); settings: ref [3]; cited from earlier work
MAS [3] = biological target: T1, MAS; set-up: method as in ref [4] (a number printed in a supplementary file, which may have a reference list of its own: not looked up in the article's list); settings: ref [4]; cited from earlier work

CC[C@H](C)[C@H](NC(=O)[C@H](Cc1ccc(O)cc1)NC(=O)[C@@H](N)C(C)C)C(=O)N[C@@H](Cc1cnc[nH]1)C(=O)N1CCC[C@H]1C(=O)N[C@@H](Cc1ccccc1)C(=O)O [AngIV / Ang(3–8), Angiotensin IV]
EC50, Calcium assay (MAS [1]; induced cells): cbd
t1/2, Calcium assay (MAS [1]; t1/2 at 1000 µM (1 mM) ligand concentration): 10.4 ± 0.3 s
Type (Arachidonic acid release assay) (MAS [2]): Agonist

Angioprotectin: physiological ligand, sequence PEVYIHPF
Effect in aortic rings (MAS [3]): Vasodilator effect in aortic rings

Reference: PMC4113456, “Atypical Signaling and Functional Desensitization Response of MAS Receptor to Peptide Ligands” (PLoS ONE, 2014)
